We go through two molecules from patent US20140371070A1, “PLANT GROWTH REGULATING COMPOUNDS” (Syngenta Participations AG, priority 2011, published 2014).

Molecules are shown by their SMILES.

What is called melting point is the temperature of the solid-liquid transition. `O=C(CCC(=O)OCCCC(F)(F)F)Nc1ccc(Br)cn1`: the melting point fell in the range of 118 to 119 °C.

Molecule `CC1(CCOC(=O)CCC(=O)Nc2ccc(Br)cn2)OCCO1` [Compound A43, 2-(2-methyl-1,3-dioxolan-2-yl)ethyl 4-[(5-bromo-2-pyridyl)amino]-4-oxo-butanoate] gave a melting point of 97 to 98 °C.
